This is an account of results in patent US6903130B1, “Pyrrolidineacetamide derivative alone or in combination for treatment of cns disorders” (UCB S.A., priority 1999, dated 2005).

The structures appear in SMILES notation.

Series [1] concerns rats in which hyperactivity has been induced using the DEX-CDP mixture. In words: Y maze test, hyperactivity induced by DEX-CDP mixture (Example 1). The series is classed as in vivo, rat. The settings on record: for Number of arms visited: median; for Effect on hyperactivity induced by DEX-CDP (in words): hyperactive rats; for Effect on hyperactivity induced by DEX-CDP (in words) / Effect of the compound per se on activity of non-hyperactive control (in words): i.p.; for Effect of the compound per se on activity of non-hyperactive control (in words): non-hyperactive control rats. From the text:
An increase in motor activity is a frequent symptom of manic disorders and as a consequence, it is often used as a model of mania in laboratory animals. […] Further, not all activity tests are suitable for observing reproducible hyperactivity.
Hyperactivity induced in rodents tested in a symmetrical v maze by a mixture of dexamphetamine and chlordiazepoxide (DEX-CDP) has been used by a number of researchers to study the effect of lithium (Cox C. et al., “Lithium attenuates “manic” activity in rats” Nature (1971), vol. 232 p 336-338—Vale A. L. and Ratcliffe F., “Effect of lithium administration on rat brain 5-hydroxyindole levels in a possible animal model of mania” Psychopharamacol. (1987), vol.91 p 352-355), or more recently the effect of the antiepiteptic “Valproate” (Cao B. J. and Peng N. A., “Magnesium valproate attenuates hyperactivity induced by dexamphetamine-chlordiazepoxide mixture in rodents” Eur. J. Pharmacol. (1993), vol. 237, p 177-181).
Lithium and valproate were also tested and used as reference compounds.
The animals used were male Sprague-Dawley rats (origin: OFA, IFFA CREDO, Belgium) weighing between 210 and 290 grams. They were placed in stainless steel cages in groups of 8. The day prior to the experiment, they were placed in macrolon cages (4 animals per cage: 38×27×15 centimeters (cm)) with the floor covered with sawdust. The cages were placed in an animal holding chamber provided with air conditioning, illuminated from 0600 hrs to 1800 hrs. Food and water were available “ad libitum”.
The apparatus used was a Y maze (each arm being 40 cm long and 15 cm wide with 35 cm walls) constructed from grey Plexiglass, located in a faintly illuminated room (Less than 5 Lux at ground level) and used to measure the rats' activity. The activity was estimated by recording the number of entries into the arms of the maze over a five-minute period. A video camera was positioned at a height of one meter above the apparatus and connected to a monitor located in an adjacent room in which an experimenter counted the number of entries into the arms.
The injection of different compounds into the rats was performed under the following conditions. 12.5 mg/kg of chlordiazepoxide and 1.18 mg/kg of D-amphetamine sulfate were dissolved in a saline solution (0.9%) and administered simultaneously by subcutaneous injection 35 minutes before the test in a volume of 1 ml/kg. 17 and 54 mg/kg of levetiracetam were dissolved in a saline aqueous solution (0.9%) and injected intraperitoneally 30 minutes before the test (table 4). 50, 100 and 200 mg/kg of sodium valproate were dissolved in an aqueous saline solution (0.9%) and injected intraperitoneally 15 minutes before the test (table 2). 2 and 4 milliequivalents (meq) of […] of lithium chloride were dissolved in a saline solution (0.9%) and injected intraperitoneally 215 minutes before the test (table 1). The test drugs were injected in a volume of 5 ml/kg.
The effects of the different drugs were studied separately. In each experiment, the animals were placed in different groups ([…]) in a random fashion. During the test, each rat was placed in the center of the apparatus and the number of visits into the arms was recorded as an activity index.
For the results to be properly statistically analyzed, they were expressed as median with the first and third quartile. General comparisons of the statistics were carried out using a Kruskal-Wallis test for the controls and the effect of the compound per se. This test was also used to compare the effect of the (DEX-CDP) mixture, and the effect of the compounds against the hyperactivity induced by the (DEX-CDP) mixture.

Series [2] concerns rats with hyperactivity induced by a mixture of dexamphetamine-chlordiazepoxide. The series is described as follows: Y-maze test, DEX-CDP hyperactivity, levetiracetam and valproate alone or combined (Example 6). The series is classed as in vivo, rat. The settings on record: median (Q1-Q3). From the text:
The purpose of the present experiment was to study the effects of levetiracetam administered alone or in combination with valproate on the hyperactivity induced in rats by a mixture of dexamphetamine-chlordiazepoxide (DEX-CDP) evaluated in a Y-shaped maze apparatus, a test recognized as a model for mania. Increased motor activity is a frequent symptom of manic disorders and, therefore, is often used as a model of mania in laboratory animals. Lithium, a medicine approved by the FDA in the prophylaxis and the treatment of bipolar disorders and mania, and valproate, indicated for the treatment of manic episodes associated with bipolar disorders, have been shown active in this model of mania (Vale A. L. & Ratcliffe F., Psychopharmacol. (1987), 91, 352-355; Cao B. J. & Peng N. A., Eur. J. Pharmacol. (1993), 237, 177-181).
Hyperactivity was induced in male Sprague Dawley rats weighing 210-290 g (n 13 or 15 per group) by a mixture of dexamphetamine-chlordiazepoxide as described by Vale A. L. (Vale A. L. & Ratcliffe F., Psychopharmacol. (1987), 91, 352-355). […]
Each rat was placed in the center of the Y-maze (with each arm 40 cm long and 15 cm wide with 35 cm walls) constructed in gray plexiglas. The number of visits into the arms was recorded over a 5 minutes period as an index of activity.
The results were expressed as median with the first and third quartile. […]

In another series the test system is sound-sensitive mice. In words: Rotarod test in sound-sensitive mice.

For the molecule `CC[C@@H](C(N)=O)N1CCCC1=O` [Levetiracetam, (S)-(−)α-ethyl-2-oxo-1-pyrrolidineacetamide], the “Number of arms visited” value is listed as 36 in series [1] (DEX-CDP mixture + levetiracetam 17 mg/kg i.p.); 26 in series [1] (DEX-CDP mixture + levetiracetam 54 mg/kg i.p.); 31 in series [1] (levetiracetam 17 mg/kg i.p. alone, no mixture); 28 in series [1] (levetiracetam 54 mg/kg i.p. alone, no mixture); 46 (41-49) in series [2] (levetiracetam 17 mg/kg i.p. + DEX-CDP mixture). In addition, the “Effect on hyperactivity induced by DEX-CDP (in words)” value in series [1] was “significantly counteracted the hyperactivity induced by DEX-CDP at a dose of 54 mg/kg”; in series [1] (listed as levetiracetam), “normalization to the activity level of the non-hyperactive control rats”. For the same molecule, the “Effect of the compound per se on activity of non-hyperactive control (in words)” value in series [1] is given as “only a slight hyperactivity at a dose of 17 mg/kg”. In the series on sound-sensitive mice (compound alone, i.p., sound-sensitive mice), the “ED50 (TD50), impairment of rotarod performance” value is on record as 360.7 mg/kg. Also, in the series with sound-sensitive mice (levetiracetam 5.5 mg/kg i.p. alone, inferred from dose-response relation), the “animals showing an impairment of the rotarod performance” value is 4%.
For `CCCC(CCC)C(=O)[O-].[Na+]` [Valproate, sodium valproate], the “Number of arms visited” value in series [1] (DEX-CDP mixture + sodium valproate 50 mg/kg i.p.) amounted to 38; in series [1] (DEX-CDP mixture + sodium valproate 100 mg/kg i.p.), 39; in series [1] (DEX-CDP mixture + sodium valproate 200 mg/kg i.p.), 20; in series [1] (sodium valproate 50 mg/kg i.p. alone, no mixture), 28; in series [1] (sodium valproate 100 mg/kg i.p. alone, no mixture), 34; in series [1] (sodium valproate 200 mg/kg i.p. alone, no mixture), 40. The “Number of arms visited” value in series [2] (valproate 150 mg/kg i.p. + DEX-CDP mixture) is given as 41 (18-49). Also, the “Effect on hyperactivity induced by DEX-CDP (in words)” value in series [1] is “significantly counteracted hyperactivity at a dose of 200 mg/kg”. The “Effect of the compound per se on activity of non-hyperactive control (in words)” value in series [1] is reported as “strong dose dependent hyperactivity”. Further, in the series on sound-sensitive mice (valproate 122 mg/kg + saline (treatment protecting 50% of the mice)), the “Impairment in the performance within the rotarod test” value worked out at 30%.
